Data on 3 compounds can be found in US4052262A (priority 1969, dated 1977).

This assay addresses T1, alkaline protease (crystalline enzyme of the present invention) from Bacillus sp. No. 221 (ATCC 21522), Bacillus sp. No. 0-4 (ATCC 21536) or Bacillus sp. No. Y- (Shouchella clausii, UniProt P41362).
T1 construct: made in house; host or cells: culture of the wild Bacillus strain (No. 221, No. 0-4 or No. Y-76); native enzyme isolated from the culture
T1 sequence (P41362 112-380): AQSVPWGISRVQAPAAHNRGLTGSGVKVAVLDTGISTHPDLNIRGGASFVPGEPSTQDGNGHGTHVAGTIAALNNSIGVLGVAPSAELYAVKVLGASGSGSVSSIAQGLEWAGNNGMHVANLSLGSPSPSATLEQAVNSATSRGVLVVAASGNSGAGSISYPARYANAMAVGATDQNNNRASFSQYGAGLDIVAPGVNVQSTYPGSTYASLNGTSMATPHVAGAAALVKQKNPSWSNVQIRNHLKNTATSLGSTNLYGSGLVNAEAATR
The class given is biochemical, No. Y-76. As to the method: One milliliter of the enzyme solution suitably diluted with 10^-2 M CaCl2 was mixed with 5 ml of 0.6% casein solution (pH 11.5, 2 × 10^-2 M Na2 HPO4 - NaOH buffer) at 30° C. After 10 minutes' incubation, 5 ml of trichloroacetic acid solution (0.11M trichloroacetic acid, 0.22M sodium acetate, and 0.33M acetic acid) was added to the reaction mixture and the mixture was further incubated at 30° C for 30 minutes. The mixture was filtered and the absorbance of the filtrate was measured at 275 mμ. The readings were corrected by substracting the value of the blank in which the enxyme solution was mixed with trichloroacetic acid solution before the casein solution was added.
One unit of protease activity is defined as the amount of enzyme required to produce the digest which is not precipitated by trichloroacetic acid and which gives absorbance value equivalent to 1 γ of tyrosine per minute at 30° C. The relative activity is the activity at any pH divided by the maximum activity and multiplied by 100. FIG. 4 of this application gives the data of the absolute activity (arbitrary scale) on the ordinate and the pH's on the axis of the abscissa.

The structures appear in SMILES notation. Like-named read-outs stand apart in the source and are kept apart here.

In turn, `O=C(O)c1cc[c]([Hg][Cl])cc1` [PCMB, p-chloromercuribenzoate] displayed a Residual activity (additive concentration 10^-3 M) of 100%.

Turning to `O=C(O)CN(CCN(CC(=O)O)CC(=O)O)CC(=O)O` [EDTA, ethylenediaminetetraacetic acid], the Residual activity is 100%.

`NC(N)=O` [Urea] gave a Residual activity (additive concentration 6 M) of 0%.
